Where “and” joins values, the source holds several entries; their conditions need not be identical. Equal entries are not always repeated. Where two headings read alike, the source gives them in different places.
Key:
SARS-CoV-2 NSP3 Mac1 [1] = biological target: T1, SARS-CoV-2 NSP3 Mac1 (Severe acute respiratory syndrome coronavirus 2, UniProt P0DTD1); design: contains a conserved macrodomain enzyme (Mac1); Differential scanning fluorimetry of Mac1, maximum thermal upshift; conditions: maximum shift over tested concentrations; binder
SARS-CoV-2 NSP3 Mac1 [2] = biological target: T1, SARS-CoV-2 NSP3 Mac1; format: binding; design: contains a conserved macrodomain enzyme (Mac1); conditions: for Spearman est (compound concentration vs apparent Tm): DSF dose responsiveness, 1 µM nsp3 mac1, adj p given; for DSF max dTma: maximal thermal upshift
In short: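 ΔTma values are thermal shifts relative to a co-located DMSO-only control, read with 5 µM Fluorescent Yellow dye. Each compound was tested in triplicate over seven concentrations (two-fold steps, top 1,000 or 100 μM). Spearman correlation of concentration versus ΔTma tested whether the shift was dose-responsive.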

SARS-CoV-2 NSP3 Mac1 [3] = biological target: T1, SARS-CoV-2 NSP3 Mac1; format: binding; conditions: for Refined occupancy: ligand occupancy after refinement (phenix.refine); for HIT*: true hit = binding in crystallographic soaking or the HTRF-based binding assay
SARS-CoV-2 NSP3 Mac1 [4] = biological target: T1, SARS-CoV-2 NSP3 Mac1; assay: biochemical; format: binding; conditions: for IC50: read-out: IC50; for Ki: read-out: Ki***
TARG1 = biological target: T2, TARG1 (Homo sapiens, UniProt Q9Y530); assay: adapted HTRF-based peptide displacement assay (off-target); format: binding
T2 construct: Targ1_HTRF; HTRF assay; pET22b(+); His6, TEV; 1-153; made in house
T2 sequence (Q9Y530 with tags, fused parts or gaps): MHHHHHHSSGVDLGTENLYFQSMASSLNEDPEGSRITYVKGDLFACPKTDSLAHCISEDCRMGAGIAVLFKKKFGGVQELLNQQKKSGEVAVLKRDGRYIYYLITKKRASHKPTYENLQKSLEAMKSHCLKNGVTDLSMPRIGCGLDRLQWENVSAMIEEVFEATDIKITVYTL

MacroD2 = biological target: T3, MacroD2 (Homo sapiens, UniProt A1Z1Q3); assay: as above; format: binding
T3 construct: MacroD2_HTRF; HTRF assay; pET22b(+); His6, TEV, Avi; made in house
T3 sequence (A1Z1Q3 with tags, fused parts or gaps): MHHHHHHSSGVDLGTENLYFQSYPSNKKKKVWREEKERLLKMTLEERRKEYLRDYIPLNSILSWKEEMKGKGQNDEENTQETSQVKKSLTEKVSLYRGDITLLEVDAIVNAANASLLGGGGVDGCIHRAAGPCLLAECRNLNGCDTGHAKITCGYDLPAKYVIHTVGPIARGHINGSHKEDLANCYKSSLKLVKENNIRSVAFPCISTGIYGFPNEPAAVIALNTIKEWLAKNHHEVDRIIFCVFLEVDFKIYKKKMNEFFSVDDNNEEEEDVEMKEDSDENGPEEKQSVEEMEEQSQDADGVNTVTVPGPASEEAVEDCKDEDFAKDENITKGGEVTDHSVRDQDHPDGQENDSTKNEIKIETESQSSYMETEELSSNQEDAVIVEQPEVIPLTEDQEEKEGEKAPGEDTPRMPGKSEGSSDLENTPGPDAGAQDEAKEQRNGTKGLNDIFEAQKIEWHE

SARS-CoV-2 NSP3 Mac1 [5] = assay: Overall hit call (binding in crystallographic soaking or the HTRF-based binding assay)
Source text: Supplement pnas.2212931120.sd01.xlsx, sheet "Compound Summary" | column: HIT*

[6] = PanDDA event map, 1 minus background density correction, crystal soaking of Mac1
[7] = HTRF ADPr-peptide displacement from SARS-CoV-2 Mac1
[8] = Ki estimation from HTRF-derived IC50, Cheng-Prusoff, peptide 400nM, Kd 2.68µM
[9] = ligand modeled from this dataset, compound concentration 100 mM, Echo dispense volume 40 or 80 nl
[10] = ligand modeled from this dataset, compound concentration 100 mM
[11] = PanDDA 1-BDC value of the event, crystal soak, compound concentration 100 mM, per dataset
[12] = crystal soak, compound concentration 100 mM, per dataset

SMILES | DSF max dTma (SARS-CoV-2 NSP3 Mac1 [1]) | Spearman est (compound concentration vs apparent Tm) (SARS-CoV-2 NSP3 Mac1 [2]) | DSF max dTma (SARS-CoV-2 NSP3 Mac1 [2]) | Refined occupancy (SARS-CoV-2 NSP3 Mac1 [3]; crystal soaking of Mac1) | HIT* (SARS-CoV-2 NSP3 Mac1 [3]) | 1-BDC (PanDDA) (SARS-CoV-2 NSP3 Mac1 [3]; [6]) | further results
CC1(C)CCC(C(=O)O)CN1C(=O)c1ncnc2[nH]ccc12 (stereo not shown) [F2804, FRESH00012962804] | 0.62 °C |  |  |  |  |  | 
CC1(C(=O)O)CCN(C(=O)Cc2c[nH]c3nccc(Cl)c23)C1 (stereo not shown) [F4848, FRESH00014134848] | 0.07 °C |  |  |  |  |  | 
Cc1noc(CC2CCCN(c3ncnc4[nH]c5cc(F)ccc5c34)C2)n1 (stereo not shown) [LL1_0005] | 0.6 °C | 0.01 | 0.6 ˚C | 22 | Y |  | 1-BDC (SARS-CoV-2 NSP3 Mac1 [3]; [6]): 0.11
O=C(O)CC1CN(c2ncnc3[nH]c4cc(F)ccc4c23)CCO1 (stereo not shown) [LL1_0014] |  | 0.91 | 3.21 ˚C | 22 | Y |  | IC50 (SARS-CoV-2 NSP3 Mac1 [4]; [7]): 16 to 29 µM and 16.4 to 28.7 µM; IC50 (SARS-CoV-2 NSP3 Mac1 [4]; HTRF): 16.4 µM and 28.7 µM; Ki (SARS-CoV-2 NSP3 Mac1 [4]; [8]): 14.3 µM and 25 µM; displacement of the ADPr-conjugated peptide (off-target activity) (TARG1; compound at 1 mM): 50%; 1-BDC (SARS-CoV-2 NSP3 Mac1 [3]; [6]): 0.11; Modeled? (SARS-CoV-2 NSP3 Mac1 [3]; [9]): TRUE; displacement of the ADPr-conjugated peptide (off-target activity) (MacroD2; compound at 1 mM): 50%
O=c1[nH]nc(C2CCCN(c3ncnc4[nH]c5cc(F)ccc5c34)C2)o1 (stereo not shown) [LL1_0017] | 0.5 °C | 0.18 | 0.5 ˚C | 18 | Y | 0.09 | Modeled? (SARS-CoV-2 NSP3 Mac1 [3]; [10]): TRUE
O=C(O)CCC1CCCN(c2ncnc3[nH]c4cc(F)ccc4c23)C1 (stereo not shown) [LL1_0018] | 2.71 °C | 0.96 | 2.71 ˚C | 20 | Y | 0.1 | IC50 (SARS-CoV-2 NSP3 Mac1 [4]; HTRF): 25.8 µM; Ki (SARS-CoV-2 NSP3 Mac1 [4]; [8]): 22.4 µM; Modeled? (SARS-CoV-2 NSP3 Mac1 [3]; [10]): TRUE
O=C(O)C1(F)CN(c2cc(Nc3ccccc3)ncn2)CC12CCC2 (stereo not shown) [LL1_0025] | 1.36 °C | 0.71 | 1.36 ˚C | 28 | Y | 0.14 | IC50 (SARS-CoV-2 NSP3 Mac1 [4]; HTRF): 121 µM; Ki (SARS-CoV-2 NSP3 Mac1 [4]; [8]): 106 µM; 1-BDC (SARS-CoV-2 NSP3 Mac1 [3]; [11]): 0.12; PanDDA hit? (SARS-CoV-2 NSP3 Mac1 [3]; [12]): TRUE; Modeled? (SARS-CoV-2 NSP3 Mac1 [3]; [10]): TRUE
CS(=O)(=O)C1CCCN(c2ncnc3[nH]c4cc(F)ccc4c23)C1 (stereo not shown) [LL1_0027] | 0.8 °C | 0.41 | 0.8 ˚C | 12 | Y |  | 1-BDC (SARS-CoV-2 NSP3 Mac1 [3]; [11]): 0.09; 1-BDC (SARS-CoV-2 NSP3 Mac1 [3]; [6]): 0.06; PanDDA hit? (SARS-CoV-2 NSP3 Mac1 [3]; [12]): TRUE; Modeled? (SARS-CoV-2 NSP3 Mac1 [3]; [9]): TRUE
Fc1ccc2c(c1)[nH]c1ncnc(N3CCOC(c4nnn[nH]4)C3)c12 (stereo not shown) [LL114_0008] |  |  |  | 50 |  | 0.25 | IC50 (SARS-CoV-2 NSP3 Mac1 [4]; HTRF ADPr-conjugated peptide displacement): 17.2 µM; IC50 (SARS-CoV-2 NSP3 Mac1 [4]; [7]): 17 µM; Ki (SARS-CoV-2 NSP3 Mac1 [4]): 15 µM; HIT* (SARS-CoV-2 NSP3 Mac1 [5]): Y; displacement of the ADPr-conjugated peptide (off-target activity) (TARG1; compound at 50 µM): showed measurable peptide displacement; 1-BDC (SARS-CoV-2 NSP3 Mac1 [3]; PanDDA event map, crystal soak, Compound_concentration 100 mM, Echo_dispense_volume 40 nl): 0.25; PanDDA hit? (SARS-CoV-2 NSP3 Mac1 [3]; crystal soak, Compound_concentration 100 mM, Echo_dispense_volume 40 nl, PanDDA run (background map) dmso_34, nohits_35 or nohits_62): TRUE; Modeled? (SARS-CoV-2 NSP3 Mac1 [3]; ligand modeled, crystal soak, Compound_concentration 100 mM, Echo_dispense_volume 40 nl): TRUE; displacement of the ADPr-conjugated peptide (off-target activity) (MacroD2; compound at 50 µM): showed measurable peptide displacement
O=C1CCCC1Nc1ncnc2[nH]c3cc(F)ccc3c12 (stereo not shown) [LRH-0008] |  |  |  |  |  |  | IC50 (SARS-CoV-2 NSP3 Mac1 [4]; [7]): 13.4 µM; Ki (SARS-CoV-2 NSP3 Mac1 [4]): 11.7 µM; HIT* (SARS-CoV-2 NSP3 Mac1 [5]): Y; binding / activity against TARG1 (TARG1; compound at 160 µM): neither neutral compounds LRH-0003 and LRH-0008 had measurable binding; binding / activity against MacroD2 (MacroD2; compound at 160 µM): neither neutral compounds LRH-0003 and LRH-0008 had measurable binding
CC1CC(C(=O)O)N1C(=O)c1cc(O)nc2ccc(F)cc12.O=C(O)C(F)(F)F (stereo not shown) [R0658, REAL300007260658] | 0.37 °C |  |  |  |  |  | 
CC1C(C(=O)O)CCCN1S(=O)(=O)c1c[nH]c2ncc(Cl)cc12 (stereo not shown) [R3575, REAL300016493575] | 0.15 °C |  |  |  |  |  | 

Source: PMC9926234, “Iterative computational design and crystallographic screening identifies potent inhibitors targeting the Nsp3 macrodomain of SARS-CoV-2” (Proceedings of the National Academy of Sciences of the …, 2023)
